# Assays:
# canine TRPV2 (cTRPV2) = assay: Calcium influx functional assay (FLIPR) in HEK293 cells transiently transfected with cTRPV2; type: cell-based; settings: recombinant cTRPV2-expressing host cells
# Description: The expression construct, cTRPV2/pcDNA3.1 was then transfected into human embryonic kidney cells (HEK293, ATCC CRL-1573) with FuGene6 transfection reagent (Roche, Indianapolis, Ind.), according to the vendor's protocol. TRPV2-expressing HEK293 cells were cultured in DMEM supplemented with 10% fetal bovine serum, 100 units/ml penicillin and 100 μg/ml streptomycin at 37° C. with 5% CO2, and were analyzed using a calcium influx assay 48-72 hr. post-transfection.
# Transiently transfected cells were seeded in 384-well plates at a density of 1×10^4 cells/well and incubated overnight at 37° C. The following day, the cells were loaded with buffer and calcium dye, as recommended by the vendor (Molecular Devices, Sunnyvale, Calif.), in a final volume of 40 μl and incubated for 30 minutes at room temperature. The fluorescence intensity was measured by FLIPR before, during and after the addition of Δ^9-THC, which was added to the cells at a final concentration of 100 μM.
# mouse TRPV2 = target: T1, mouse TRPV2 (Mus musculus, UniProt Q9WTR1); settings: cited from earlier work
# T1 sequence (Q9WTR1 1-756): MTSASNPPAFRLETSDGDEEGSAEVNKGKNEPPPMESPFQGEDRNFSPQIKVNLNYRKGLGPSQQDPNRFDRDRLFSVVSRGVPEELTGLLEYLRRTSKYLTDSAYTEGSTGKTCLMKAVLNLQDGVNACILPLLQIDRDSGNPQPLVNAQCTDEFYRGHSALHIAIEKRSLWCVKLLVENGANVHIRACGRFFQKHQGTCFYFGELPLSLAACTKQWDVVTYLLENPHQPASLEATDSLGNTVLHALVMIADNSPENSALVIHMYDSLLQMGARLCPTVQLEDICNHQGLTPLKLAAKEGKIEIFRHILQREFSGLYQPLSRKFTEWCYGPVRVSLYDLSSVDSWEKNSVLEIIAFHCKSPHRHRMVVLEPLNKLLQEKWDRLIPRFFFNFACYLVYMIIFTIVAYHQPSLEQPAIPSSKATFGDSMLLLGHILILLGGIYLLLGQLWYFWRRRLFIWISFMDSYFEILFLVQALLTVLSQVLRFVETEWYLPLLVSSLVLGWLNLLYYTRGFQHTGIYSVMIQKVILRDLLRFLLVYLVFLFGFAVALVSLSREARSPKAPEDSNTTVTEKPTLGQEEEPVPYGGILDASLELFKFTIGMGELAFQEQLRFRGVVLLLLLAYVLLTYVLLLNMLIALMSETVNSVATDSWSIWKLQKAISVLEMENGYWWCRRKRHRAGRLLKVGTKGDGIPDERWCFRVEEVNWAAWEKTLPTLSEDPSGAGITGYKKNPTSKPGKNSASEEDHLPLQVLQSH
# rat TRPV2 = target: T2, rat TRPV2 (Rattus norvegicus, UniProt Q9WUD2); settings: cited from earlier work
# T2 sequence (Q9WUD2 1-761): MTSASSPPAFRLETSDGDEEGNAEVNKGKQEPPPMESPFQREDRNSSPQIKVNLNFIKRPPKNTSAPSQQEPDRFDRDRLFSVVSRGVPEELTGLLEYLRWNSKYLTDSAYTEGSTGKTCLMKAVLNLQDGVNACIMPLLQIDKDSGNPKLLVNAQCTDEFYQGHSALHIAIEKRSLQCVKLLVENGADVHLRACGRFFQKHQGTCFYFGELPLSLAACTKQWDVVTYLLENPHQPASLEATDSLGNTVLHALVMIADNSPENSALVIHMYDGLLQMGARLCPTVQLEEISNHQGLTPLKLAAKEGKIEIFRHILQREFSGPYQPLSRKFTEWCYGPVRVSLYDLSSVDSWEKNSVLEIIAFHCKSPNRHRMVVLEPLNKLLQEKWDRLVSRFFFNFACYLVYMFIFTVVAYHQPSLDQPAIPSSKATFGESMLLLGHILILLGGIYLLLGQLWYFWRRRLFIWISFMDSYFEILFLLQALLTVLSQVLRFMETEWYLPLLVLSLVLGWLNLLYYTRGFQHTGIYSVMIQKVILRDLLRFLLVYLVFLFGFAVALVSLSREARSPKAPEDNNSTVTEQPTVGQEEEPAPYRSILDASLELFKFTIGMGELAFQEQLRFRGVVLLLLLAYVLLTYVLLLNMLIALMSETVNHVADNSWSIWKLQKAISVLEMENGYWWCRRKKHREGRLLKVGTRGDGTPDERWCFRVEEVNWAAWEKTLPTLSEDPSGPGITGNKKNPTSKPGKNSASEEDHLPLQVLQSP
# human TRPV2 = target: T3, human TRPV2 (Homo sapiens, UniProt Q9Y5S1); settings: cited from earlier work
# T3 sequence (Q9Y5S1 1-764): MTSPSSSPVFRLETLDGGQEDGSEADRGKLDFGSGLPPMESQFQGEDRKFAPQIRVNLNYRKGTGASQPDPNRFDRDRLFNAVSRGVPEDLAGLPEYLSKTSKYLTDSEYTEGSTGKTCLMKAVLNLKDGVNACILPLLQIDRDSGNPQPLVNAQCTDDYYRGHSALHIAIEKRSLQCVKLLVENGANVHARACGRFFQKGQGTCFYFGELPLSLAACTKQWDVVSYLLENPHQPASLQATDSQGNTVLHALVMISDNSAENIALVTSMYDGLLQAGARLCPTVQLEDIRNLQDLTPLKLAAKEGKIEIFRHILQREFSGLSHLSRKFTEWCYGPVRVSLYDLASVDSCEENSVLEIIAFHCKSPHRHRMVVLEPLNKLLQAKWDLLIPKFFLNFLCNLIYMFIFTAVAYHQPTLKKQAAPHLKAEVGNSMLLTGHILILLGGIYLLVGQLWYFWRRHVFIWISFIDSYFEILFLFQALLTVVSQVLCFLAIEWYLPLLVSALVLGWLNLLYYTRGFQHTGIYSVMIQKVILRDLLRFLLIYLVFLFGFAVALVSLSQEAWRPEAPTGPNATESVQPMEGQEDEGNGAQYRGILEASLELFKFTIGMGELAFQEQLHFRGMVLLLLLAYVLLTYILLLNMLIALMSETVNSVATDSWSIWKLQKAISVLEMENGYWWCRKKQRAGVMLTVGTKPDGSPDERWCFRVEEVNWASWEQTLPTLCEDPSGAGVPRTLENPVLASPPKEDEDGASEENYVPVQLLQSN
smiles,measurement,setting,value
"CCCCCc1cc(O)c2c(c1)OC(C)(C)[C@@H]1CCC(C)=C[C@@H]21 [Δ^9-THC, Δ^9-tetrahydrocannabinol]",response of the recombinant TRPV2 cell system to agonist,canine TRPV2 (cTRPV2),responded to Δ^9-THC in a dose-dependent manner
same,activation of mouse TRPV2 (selective agonist),mouse TRPV2,activate
same,activation of rat TRPV2 (selective agonist),rat TRPV2,activate
same,activation of human TRPV2 (selective agonist),human TRPV2,activate

# Reference: patent publication US7897358B2, “Canine transient receptor potential V2 (cTRPV2) and methods of screening for TRPV2 channel modulators” (Janssen Pharmaceutica N.V., priority 2007, dated 2011)
